In patent publication US6777422B2, “Substituted tetrahydroisoquinolines as C5a receptor modulators” (Neurogen Corp., priority 2002, dated 2004) one finds Ki data, which are given here for 22 compounds.

Where only a bound is given, the exact number is not on record here.

The target of the first test is T1, human C5a receptor (Homo sapiens, UniProt P21730).
T1 construct: endogenous in cells; host or cells: U937 cells differentiated with 1 mM dibutyryl cAMP
T1 sequence (P21730 1-350): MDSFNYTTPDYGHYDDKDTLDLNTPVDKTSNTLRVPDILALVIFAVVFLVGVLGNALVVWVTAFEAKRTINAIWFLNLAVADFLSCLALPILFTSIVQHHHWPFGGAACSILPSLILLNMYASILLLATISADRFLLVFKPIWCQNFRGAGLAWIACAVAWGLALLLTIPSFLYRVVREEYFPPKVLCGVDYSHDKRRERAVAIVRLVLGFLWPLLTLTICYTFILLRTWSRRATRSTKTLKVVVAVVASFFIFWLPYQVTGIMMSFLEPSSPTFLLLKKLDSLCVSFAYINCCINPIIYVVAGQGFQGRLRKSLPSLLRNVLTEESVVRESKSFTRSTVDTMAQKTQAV
The test can be described thus: C5a receptor mediated calcium mobilization assay (Example 20). It counts as cell-based. As to conditions: differentiated U937 cells, read-out: Ca2+ (Ki in the standard assay of C5a receptor mediated calcium mobilization). As for the experimental part: Calcium Mobilization Assays
U937 cells are grown in differentiation media (1 mM dibutyryl cAMP in RPMI 1640 medium containing 10% fetal bovine serum) for 48 hrs at 37° C. then reseeded onto 96-well plates suitable for use in a FLIPR™ Plate Reader (Molecular Devices Corp., Sunnyvale Calif.). Cells are grown an additional 24 hours (to 70-90% confluence) before the assay. The cells are then washed once with Krebs Ringer solution. FLUO-3 calcium sensitive dye (Molecular Probes, Inc. Eugene, Oreg.) is added to 10 μg/mL and incubated with the cells at room temperature for 1 to 2 hours. The 96 well plates are then washed to remove excess dye. Fluorescence responses, measured by excitation at 480 nm and emission at 530 nm, are monitored upon the addition of human C5a to the cells to a final concentration of 0.01-30.0 nM, using the FLIPR™ device (Molecular Devices).
C. Assays for the Identification of Receptor Modulatory Agents: Antagonists and Agonists
The calcium mobilization assay described above may be readily adapted for identifying test compounds that have agonist or antagonist activity at the human C5a receptor.
For example, in order to identify antagonist compounds, differentiated U937 cells are washed and incubated with Fluo-3 dye as described above. One hour prior to measuring the fluorescence signal, a subset of the cells is incubated with 1 μM of at least one compound to be tested. The fluorescence response upon the subsequent addition of 0.3 nM (final concentration) human recombinant C5a is monitored using the FLIPR™ plate reader. Antagonist compounds elicit at least a 2-fold decrease in the fluorescence response relative to that measured in the presence of human C5a alone. Preferred antagonist compounds elicit at least a 5-fold, preferably at least a 10-fold, and more preferably at least a 20-fold decrease in the fluorescence response relative to that measured in the presence of human C5a alone.
Background: Calcium flux is commonly read through the fluorescence of an indicator in the cells.
Take `Cc1ccccc1[C@@H]1c2ccccc2CCN1[C@@H](C)C(=O)N(Cc1ccccc1F)C1Cc2ccccc2C1` (relative stereo) [Compound 19, N-(indan-2-yl)-N-(2-fluorobenzyl)-2-[1-(2-methylphenyl)-3,4-dihydroisoquinolin-2(1H)-yl]propanamide]: the Ki is < 1000 nM. On to `O=C(CN1CCc2ccccc2[C@H]1c1ccccc1Br)N(Cc1ccccc1F)C1Cc2ccccc2C1` (stereo in doubt) [Compound 22, 2-[1-(2-bromophenyl)-3,4-dihydroisoquinolin-2(1H)-yl]-N-(indan-2-yl)-N-(2-fluorobenzyl)acetamide], for which the Ki was < 1000 nM. Take `Cc1ccccc1C1c2ccccc2CCN1CC(=O)N(Cc1ccccc1F)C1Cc2ccccc2C1` (stereo in doubt) [Compound 28, N-(indan-2-yl)-N-(2-fluorobenzyl)-2-[(1S)-1-(2-methylphenyl)-3,4-dihydroisoquinolin-2(1H)-yl]acetamide]: the Ki is < 1000 nM. For `Cc1ccccc1C1c2ccccc2[C@@H](C)CN1CC(=O)N(Cc1ccccc1F)C1Cc2ccccc2C1` (stereo in doubt) [Compound 30, N-(2-Fluoro-benzyl)-N-indan-2-yl-2-(4-methyl-1-o-tolyl-3,4-dihydro-1H-isoquinolin-2-yl)-acetamide], the Ki is < 1000 nM. For `Cc1ccccc1[C@@H]1c2ccccc2CCN1[C@@H](C)C(=O)N(Cc1ccccc1F)C1Cc2ccccc2C1` (stereo in doubt) [Compound 34, (2S)-N-(indan-2-yl)-N-(2-fluorobenzyl)-2-[(1R)-1-(2-methylphenyl)-3,4-dihydroisoquinolin-2(1H)-yl]propanamide], the Ki is < 1000 nM.

Take `O=C(CN1CCc2ccccc2[C@H]1c1cccc(Cl)c1Cl)N(Cc1ccccc1F)C1Cc2ccccc2C1` (stereo in doubt) [Compound 36, 2-[1-(2,3-dichlorophenyl)-3,4-dihydroisoquinolin-2(1H)-yl]-N-(indan-2-yl)-N-(2-fluorobenzyl)acetamide]: the Ki is < 1000 nM. Same read-out and setting: for `Cc1ccccc1[C@H]1c2ccccc2CCN1[C@@H](C)C(=O)N(Cc1ccccc1F)C1Cc2ccccc2C1` (stereo in doubt) [Compound 39, (2S)-N-(indan-2-yl)-N-(2-fluorobenzyl)-2-[(1S)-1-(2-methylphenyl)-3,4-dihydroisoquinolin-2(1H)-yl]propanamide] the value was < 1000 nM; for `Cc1ccccc1[C@@H]1c2ccccc2[C@@H](C)CN1CC(=O)N(Cc1ccccc1F)C1Cc2ccccc2C1` (stereo in doubt) [Compound 46, N-(indan-2-yl)-N-(2-fluorobenzyl)-2-[(1R,4R)-4-methyl-1-(2-methylphenyl)-3,4-dihydroisoquinolin-2(1H)-yl]acetamide], < 1000 nM.

With `Cc1ccc(C)c([C@@H]2c3ccccc3CCN2CC(=O)N(Cc2ccccc2F)C2Cc3ccccc3C2)c1` (stereo in doubt) [Compound 49, N-(indan-2-yl)-2-[1-(2,5-dimethylphenyl)-3,4-dihydroisoquinolin-2(1H)-yl]-N-(2-fluorobenzyl)acetamide], the Ki is < 1000 nM. Same read-out and setting: for `Cc1ccc(Cl)cc1[C@@H]1c2ccccc2CCN1CC(=O)N(Cc1ccccc1F)C1Cc2ccccc2C1` (stereo in doubt) [Compound 51, 2-[1-(5-chloro-2-methylphenyl)-3,4-dihydroisoquinolin-2(1H)-yl]-N-(indan-2-yl)-N-(2-fluorobenzyl)acetamide] the value was < 1000 nM; for `Cc1ccc(Cl)c([C@@H]2c3ccccc3CCN2CC(=O)N(Cc2ccccc2F)C2Cc3ccccc3C2)c1` (stereo in doubt) [Compound 52, 2-[1-(2-chloro-5-methylphenyl)-3,4-dihydroisoquinolin-2(1H)-yl]-N-(indan-2-yl)-N-(2-fluorobenzyl)acetamide], < 1000 nM. The same measure, in the same setting: for `Cc1ccccc1[C@@H]1c2c(ccc(C)c2C)CCN1CC(=O)N(Cc1ccccc1F)C1Cc2ccccc2C1` (stereo in doubt) [Compound 73, N-(indan-2-yl)-2-[7,8-dimethyl-1-(2-methylphenyl)-3,4-dihydroisoquinolin-2(1H)-yl]-N-(2-fluorobenzyl)acetamide] the value was < 1000 nM; for `Cc1ccccc1[C@@H]1c2c(C)cccc2CCN1CC(=O)N(Cc1ccccc1F)C1Cc2ccccc2C1` (stereo in doubt) [Compound 78, N-(indan-2-yl)-N-(2-fluorobenzyl)-2-[8-methyl-1-(2-methylphenyl)-3,4-dihydroisoquinolin-2(1H)-yl]acetamide], < 1000 nM; for `COc1cccc2c1C(c1ccccc1C)N(CC(=O)N(Cc1ccccc1F)C1Cc3ccccc3C1)CC2` (stereo not shown) [Compound 14, N-(indan-2-yl)-N-(2-fluorobenzyl)-2-[8-methoxy-1-(2-methylphenyl)-3,4-dihydroisoquinolin-2(1H)-yl]acetamide], < 1000 nM. On the same count and under the same terms, for `CCC1(c2ccccc2C)c2ccccc2CCN1CC(=O)N(Cc1ccccc1F)C1Cc2ccccc2C1` (stereo not shown) [Compound 16, N-(indan-2-yl)-2-[1-ethyl-1-(2-methylphenyl)-3,4-dihydroisoquinolin-2(1H)-yl]-N-(2-fluorobenzyl)acetamide] the value was < 1000 nM; for `COc1ccccc1C1c2ccccc2CCN1CC(=O)N(Cc1ccccc1F)C1Cc2ccccc2C1` (stereo not shown) [Compound 24, N-(indan-2-yl)-N-(2-fluorobenzyl)-2-[1-(2-methoxyphenyl)-3,4-dihydroisoquinolin-2(1H)-yl]acetamide], < 1000 nM; for `Cc1cccc(C2c3ccccc3CCN2CC(=O)N(Cc2ccccc2F)C2Cc3ccccc3C2)c1C` (stereo not shown) [Compound 25, N-(indan-2-yl)-2-[1-(2,3-dimethylphenyl)-3,4-dihydroisoquinolin-2(1H)-yl]-N-(2-fluorobenzyl)acetamide], < 1000 nM.

Consider `Cc1ccccc1[C@@H]1c2ccccc2CCN1CC(=O)N(Cc1ccccc1F)C1Cc2ccccc2C1` [Compound 26, N-(indan-2-yl)-N-(2-fluorobenzyl)-2-[(1R)-1-(2-methylphenyl)-3,4-dihydroisoquinolin-2(1H)-yl]acetamide], for which the Ki is < 1000 nM. The same measure, in the same setting: the same measure for `Cc1ccccc1C1c2ccccc2[C@@H](C)CN1CC(=O)N(Cc1ccccc1F)C1Cc2ccccc2C1` (stereo partly drawn) [Compound 27, N-(indan-2-yl)-N-(2-fluorobenzyl)-2-[(4R)-4-methyl-1-(2-methylphenyl)-3,4-dihydroisoquinolin-2(1H)-yl]acetamide]: < 1000 nM.

Take `CCc1ccccc1C1c2ccccc2CCN1CC(=O)N(Cc1ccccc1F)C1Cc2ccccc2C1` (stereo not shown) [Compound 29, N-(indan-2-yl)-2-[1-(2-ethylphenyl)-3,4-dihydroisoquinolin-2(1H)-yl]-N-(2-fluorobenzyl)acetamide]: the Ki was < 1000 nM.

The test is the same for the next values; noted with them: differentiated U937 cells, unit inferred, read-out: Ca2+ (numeric value, C5a receptor mediated calcium mobilization).
For the compound `Cc1ccccc1[C@@H]1C2=C(CCCC2)CCN1CC(=O)N(Cc1ccccc1F)C1Cc2ccccc2C1` (stereo in doubt) [Compound 131, N-(2-Fluoro-benzyl)-N-indan-2-yl-2-(1-o-tolyl-3,4,5,6,7,8-hexahydro-1H-isoquinolin-2-yl)-acetamide], the Ki was 13.1 nM. Same read-out and setting: the same measure for `Cc1ccccc1[C@@H]1CCCCN1[C@@H](C)C(=O)N(Cc1ccccc1F)C1Cc2ccccc2C1` (stereo in doubt) [Compound 132, N-(2-Fluoro-benzyl)-N-indan-2-yl-2-(2-o-tolyl-piperidin-1-yl)-propionamide]: 115 nM.
